Measurements as given in PubChem BioAssay (NCI).
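Following 48 hours of exposure in 96-well plates, responses at five concentrations were used to interpolate endpoints linearly. TGI is the concentration that stops growth completely.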

The compounds below were run on 786-0 renal (assay: NCI tumour cell line growth inhibition, 48 h).

Work on `O=C1NC2(CCCCCC2)C2CCCCCCC12O` (configuration not stated) yielded a TGI of over 100 µM.

The compounds below were run on IGROV1 ovarian (assay: NCI tumour cell line growth inhibition, 48 h).

Point of comparison: `CC(C)CC(NC(=O)OC(C)(C)C)C(=O)Nc1ccc(Nc2nc(F)nc(-c3c4ccccc4c4n3CCS4)n2)cc1` (configuration not stated), TGI 42.3 µM. Against it:
- CCC12CCCN(Cc3ccccc3)C1c1c(n(C)c3ccccc13)C(C(=O)OC)C2 (configuration not stated) — higher, > 239 µM
- COc1ccc2c(c1)[n+]([O-])c(-c1ccc(OC)c(OC)c1)c(N)[n+]2[O-] — higher, > 100 µM
- O=C(O/C(=C(/N=Nc1ccccc1)c1ccccc1)c1ccccc1)c1ccccc1 — higher, > 100 µM
- COc1cc([C@@H]2c3cc4c(cc3[C@@H](OC(=O)c3ccc(N)cc3)C3COC(=O)[C@@H]32)OCO4)cc(OC)c1O (some centres not stated) — 2.4-fold lower, 17.3 µM
- CC(=O)NNc1nc(C)c(C(=O)/C=C/c2ccccc2Cl)s1 — higher, > 100 µM
- O=C1NC2(CCCCCC2)C2CCCCCCC12O (configuration not stated) — higher, > 100 µM

These compounds were tested on MOLT-4 leukemia (assay: NCI tumour cell line growth inhibition, 48 h).

Point of comparison: `CC(C)CC(NC(=O)OC(C)(C)C)C(=O)Nc1ccc(Nc2nc(F)nc(-c3c4ccccc4c4n3CCS4)n2)cc1` (configuration not stated), TGI 39 µM. Against it:
- CCC12CCCN(Cc3ccccc3)C1c1c(n(C)c3ccccc13)C(C(=O)OC)C2 (configuration not stated) — higher, > 239 µM
- COc1ccc2c(c1)[n+]([O-])c(-c1ccc(OC)c(OC)c1)c(N)[n+]2[O-] — higher, > 100 µM
- O=C(O/C(=C(/N=Nc1ccccc1)c1ccccc1)c1ccccc1)c1ccccc1 — higher, > 100 µM
- COc1cc([C@@H]2c3cc4c(cc3[C@@H](OC(=O)c3ccc(N)cc3)C3COC(=O)[C@@H]32)OCO4)cc(OC)c1O (some centres not stated) — 1.7-fold higher, 67.4 µM
- Cc1ccc(SSc2ccc(C)cc2C(=O)O)c(C(=O)O)c1 — higher, > 100 µM
- CC(=O)NNc1nc(C)c(C(=O)/C=C/c2ccccc2Cl)s1 — higher, > 100 µM
- O=C1NC2(CCCCCC2)C2CCCCCCC12O (configuration not stated) — higher, > 100 µM

Each compound was assayed on OVCAR-8 ovarian (assay: NCI tumour cell line growth inhibition, 48 h).

Point of comparison: `COc1cc([C@@H]2c3cc4c(cc3[C@@H](OC(=O)c3ccc(N)cc3)C3COC(=O)[C@@H]32)OCO4)cc(OC)c1O` (some centres not stated), TGI 78.5 µM. Against it:
- CCC12CCCN(Cc3ccccc3)C1c1c(n(C)c3ccccc13)C(C(=O)OC)C2 (configuration not stated) — higher, > 239 µM
- COc1ccc2c(c1)[n+]([O-])c(-c1ccc(OC)c(OC)c1)c(N)[n+]2[O-] — higher, > 100 µM
- CC(C)CC(NC(=O)OC(C)(C)C)C(=O)Nc1ccc(Nc2nc(F)nc(-c3c4ccccc4c4n3CCS4)n2)cc1 (configuration not stated) — 2-fold lower, 38.3 µM
- O=C(O/C(=C(/N=Nc1ccccc1)c1ccccc1)c1ccccc1)c1ccccc1 — higher, > 100 µM
- Cc1ccc(SSc2ccc(C)cc2C(=O)O)c(C(=O)O)c1 — higher, > 100 µM
- CC(=O)NNc1nc(C)c(C(=O)/C=C/c2ccccc2Cl)s1 — higher, > 100 µM
- O=C1NC2(CCCCCC2)C2CCCCCCC12O (configuration not stated) — higher, > 100 µM

What follows are compounds tested on HCC-2998 colon (assay: NCI tumour cell line growth inhibition, 48 h).

Point of comparison: `COc1cc([C@@H]2c3cc4c(cc3[C@@H](OC(=O)c3ccc(N)cc3)C3COC(=O)[C@@H]32)OCO4)cc(OC)c1O` (some centres not stated), TGI 36.3 µM. Against it:
- CCC12CCCN(Cc3ccccc3)C1c1c(n(C)c3ccccc13)C(C(=O)OC)C2 (configuration not stated) — higher, > 239 µM
- COc1ccc2c(c1)[n+]([O-])c(-c1ccc(OC)c(OC)c1)c(N)[n+]2[O-] — higher, > 100 µM
- CC(C)CC(NC(=O)OC(C)(C)C)C(=O)Nc1ccc(Nc2nc(F)nc(-c3c4ccccc4c4n3CCS4)n2)cc1 (configuration not stated) — within 1.5-fold, 35 µM
- O=C(O/C(=C(/N=Nc1ccccc1)c1ccccc1)c1ccccc1)c1ccccc1 — higher, > 100 µM
- CC(=O)NNc1nc(C)c(C(=O)/C=C/c2ccccc2Cl)s1 — higher, > 100 µM

These compounds were tested on SK-MEL-28 melanoma (assay: NCI tumour cell line growth inhibition, 48 h).

Point of comparison: `COc1ccc2c(c1)[n+]([O-])c(-c1ccc(OC)c(OC)c1)c(N)[n+]2[O-]`, TGI 69.4 µM. Against it:
- CCC12CCCN(Cc3ccccc3)C1c1c(n(C)c3ccccc13)C(C(=O)OC)C2 (configuration not stated) — higher, > 239 µM
- CC(C)CC(NC(=O)OC(C)(C)C)C(=O)Nc1ccc(Nc2nc(F)nc(-c3c4ccccc4c4n3CCS4)n2)cc1 (configuration not stated) — 1.6-fold lower, 42.7 µM
- O=C(O/C(=C(/N=Nc1ccccc1)c1ccccc1)c1ccccc1)c1ccccc1 — higher, > 100 µM
- COc1cc([C@@H]2c3cc4c(cc3[C@@H](OC(=O)c3ccc(N)cc3)C3COC(=O)[C@@H]32)OCO4)cc(OC)c1O (some centres not stated) — higher, > 95 µM
- Cc1ccc(SSc2ccc(C)cc2C(=O)O)c(C(=O)O)c1 — higher, > 100 µM
- CC(=O)NNc1nc(C)c(C(=O)/C=C/c2ccccc2Cl)s1 — higher, > 100 µM
- O=C1NC2(CCCCCC2)C2CCCCCCC12O (configuration not stated) — higher, > 100 µM

The compounds below were run on SR leukemia (assay: NCI tumour cell line growth inhibition, 48 h).

Point of comparison: `CC(C)CC(NC(=O)OC(C)(C)C)C(=O)Nc1ccc(Nc2nc(F)nc(-c3c4ccccc4c4n3CCS4)n2)cc1` (configuration not stated), TGI 34.7 µM. Against it:
- CCC12CCCN(Cc3ccccc3)C1c1c(n(C)c3ccccc13)C(C(=O)OC)C2 (configuration not stated) — higher, > 239 µM
- O=C(O/C(=C(/N=Nc1ccccc1)c1ccccc1)c1ccccc1)c1ccccc1 — higher, > 100 µM
- Cc1ccc(SSc2ccc(C)cc2C(=O)O)c(C(=O)O)c1 — higher, > 100 µM
- O=C1NC2(CCCCCC2)C2CCCCCCC12O (configuration not stated) — higher, > 100 µM

Each compound was assayed on OVCAR-5 ovarian (assay: NCI tumour cell line growth inhibition, 48 h).

Point of comparison: `CC(C)CC(NC(=O)OC(C)(C)C)C(=O)Nc1ccc(Nc2nc(F)nc(-c3c4ccccc4c4n3CCS4)n2)cc1` (configuration not stated), TGI 44.7 µM. Against it:
- CCC12CCCN(Cc3ccccc3)C1c1c(n(C)c3ccccc13)C(C(=O)OC)C2 (configuration not stated) — higher, > 239 µM
- COc1ccc2c(c1)[n+]([O-])c(-c1ccc(OC)c(OC)c1)c(N)[n+]2[O-] — higher, > 100 µM
- O=C(O/C(=C(/N=Nc1ccccc1)c1ccccc1)c1ccccc1)c1ccccc1 — higher, > 100 µM
- COc1cc([C@@H]2c3cc4c(cc3[C@@H](OC(=O)c3ccc(N)cc3)C3COC(=O)[C@@H]32)OCO4)cc(OC)c1O (some centres not stated) — higher, > 95 µM
- Cc1ccc(SSc2ccc(C)cc2C(=O)O)c(C(=O)O)c1 — higher, > 100 µM
- CC(=O)NNc1nc(C)c(C(=O)/C=C/c2ccccc2Cl)s1 — higher, > 100 µM
- O=C1NC2(CCCCCC2)C2CCCCCCC12O (configuration not stated) — higher, > 100 µM

The compounds below were run on RPMI-8226 leukemia (assay: NCI tumour cell line growth inhibition, 48 h).

`CCC12CCCN(Cc3ccccc3)C1c1c(n(C)c3ccccc13)C(C(=O)OC)C2` (configuration not stated) gave a TGI of over 239 µM.
